Results taken from ChEMBL document CHEMBL2346657, “Synthesis of novel 2-amino-4-(5'-substituted 2'-phenyl-1H-indol-3'-yl)-6-aryl-4H-pyran-3-carbonitrile derivatives as antimicrobial and antioxidant agents” (2013).
Active and inactive are the calls of the source.

System: Escherichia coli
Assay: Antimicrobial activity against Escherichia coli MTCC 723 at 500 ug/ml after 24 hrs by cup plate method
Type: functional
Settings: MTCC 723, 24 h, read-out: IZ

Row | Compound | zone of inhibition at 500 µg/mL [mm]
1 | Nc1nc(=S)[nH]c2c1C(c1c(-c3ccccc3)[nH]c3ccc(Cl)cc13)C=C(c1ccc(Cl)cc1)O2 (stereo unspecified) | 10

System: Pseudomonas aeruginosa
Assay: Antimicrobial activity against Pseudomonas aeruginosa MTCC 1688 at 750 ug/ml after 24 hrs by cup plate method
Type: functional
Settings: MTCC 1688, 24 h, read-out: IZ

Row | Compound | zone of inhibition at 750 µg/mL [mm]
2 | Nc1nc(=S)[nH]c2c1C(c1c(-c3ccccc3)[nH]c3ccc(Cl)cc13)C=C(c1ccc(Cl)cc1)O2 (stereo unspecified) | 10

System: Escherichia coli
Assay: Antimicrobial activity against Escherichia coli MTCC 723 at 1000 ug/ml after 24 hrs by cup plate method
Type: functional
Settings: MTCC 723, 24 h, read-out: IZ

Row | Compound | zone of inhibition at 1000 µg/mL [mm]
3 | Nc1nc(=S)[nH]c2c1C(c1c(-c3ccccc3)[nH]c3ccc(Cl)cc13)C=C(c1ccc(Cl)cc1)O2 (stereo unspecified) | 11

System: Aspergillus flavus
Assay: Antimicrobial activity against Aspergillus flavus MTCC 1973 at 1000 ug/ml after 72 hrs by cup plate method
Type: functional
Settings: MTCC 1973, 72 h, read-out: IZ

Row | Compound | zone of inhibition at 1000 µg/mL [mm]
4 | Nc1nc(=S)[nH]c2c1C(c1c(-c3ccccc3)[nH]c3ccc(Cl)cc13)C=C(c1ccc(Cl)cc1)O2 (stereo unspecified) | 11

System: Aspergillus flavus
Assay: Antimicrobial activity against Aspergillus flavus MTCC 1973 at 500 ug/ml after 72 hrs by cup plate method
Type: functional
Settings: MTCC 1973, 72 h, read-out: IZ

Row | Compound | zone of inhibition at 500 µg/mL [mm]
5 | Nc1nc(=S)[nH]c2c1C(c1c(-c3ccccc3)[nH]c3ccc(Cl)cc13)C=C(c1ccc(Cl)cc1)O2 (stereo unspecified) | 5

System: Aspergillus niger
Assay: Antimicrobial activity against Aspergillus niger MTCC 281 at 500 ug/ml after 72 hrs by cup plate method
Type: functional
Settings: MTCC 281, 72 h, read-out: IZ

Row | Compound | zone of inhibition at 500 µg/mL [mm]
6 | Nc1nc(=S)[nH]c2c1C(c1c(-c3ccccc3)[nH]c3ccc(Cl)cc13)C=C(c1ccc(Cl)cc1)O2 (stereo unspecified) | 11

System: Radical scavenging activity
Assay: Antioxidant activity assessed as DPPH radical scavenging activity at 75 ug/ml
Type: functional
Settings: not given

Row | Compound | Activity
7 | Nc1nc(=S)[nH]c2c1C(c1c(-c3ccccc3)[nH]c3ccc(Cl)cc13)C=C(c1ccc(Cl)cc1)O2 (stereo unspecified) | Active

System: Aspergillus oryzae
Assay: Antimicrobial activity against Aspergillus oryzae MTCC 3567 at 750 ug/ml after 72 hrs by cup plate method
Type: functional
Settings: MTCC 3567, 72 h, read-out: IZ

Row | Compound | zone of inhibition at 750 µg/mL [mm]
8 | Nc1nc(=S)[nH]c2c1C(c1c(-c3ccccc3)[nH]c3ccc(Cl)cc13)C=C(c1ccc(Cl)cc1)O2 (stereo unspecified) | 10

System: Aspergillus niger
Assay: Antimicrobial activity against Aspergillus niger MTCC 281 at 750 ug/ml after 72 hrs by cup plate method
Type: functional
Settings: MTCC 281, 72 h, read-out: IZ

Row | Compound | zone of inhibition at 750 µg/mL [mm]
9 | Nc1nc(=S)[nH]c2c1C(c1c(-c3ccccc3)[nH]c3ccc(Cl)cc13)C=C(c1ccc(Cl)cc1)O2 (stereo unspecified) | 11

System: Klebsiella pneumoniae
Assay: Antimicrobial activity against Klebsiella pneumoniae NCTC 13368 at 750 ug/ml after 24 hrs by cup plate method
Type: functional
Settings: NCTC 13368, 24 h, read-out: IZ

Row | Compound | zone of inhibition at 750 µg/mL [mm]
10 | Nc1nc(=S)[nH]c2c1C(c1c(-c3ccccc3)[nH]c3ccc(Cl)cc13)C=C(c1ccc(Cl)cc1)O2 (stereo unspecified) | 5

System: Aspergillus terreus
Assay: Antimicrobial activity against Aspergillus terreus MTCC 1782 at 750 ug/ml after 72 hrs by cup plate method
Type: functional
Settings: MTCC 1782, 72 h, read-out: IZ

Row | Compound | zone of inhibition at 750 µg/mL [mm]
11 | Nc1nc(=S)[nH]c2c1C(c1c(-c3ccccc3)[nH]c3ccc(Cl)cc13)C=C(c1ccc(Cl)cc1)O2 (stereo unspecified) | 3

System: Aspergillus oryzae
Assay: Antimicrobial activity against Aspergillus oryzae MTCC 3567 at 500 ug/ml after 72 hrs by cup plate method
Type: functional
Settings: MTCC 3567, 72 h, read-out: IZ

Row | Compound | zone of inhibition at 500 µg/mL [mm]
12 | Nc1nc(=S)[nH]c2c1C(c1c(-c3ccccc3)[nH]c3ccc(Cl)cc13)C=C(c1ccc(Cl)cc1)O2 (stereo unspecified) | 9

System: Staphylococcus aureus
Assay: Antimicrobial activity against Staphylococcus aureus ATCC 29513 at 1000 ug/ml after 24 hrs by cup plate method
Type: functional
Settings: ATCC 29513, 24 h, read-out: IZ

Row | Compound | zone of inhibition at 1000 µg/mL [mm]
13 | Nc1nc(=S)[nH]c2c1C(c1c(-c3ccccc3)[nH]c3ccc(Cl)cc13)C=C(c1ccc(Cl)cc1)O2 (stereo unspecified) | 13

System: Escherichia coli
Assay: Antimicrobial activity against Escherichia coli MTCC 723 at 750 ug/ml after 24 hrs by cup plate method
Type: functional
Settings: MTCC 723, 24 h, read-out: IZ

Row | Compound | zone of inhibition at 750 µg/mL [mm]
14 | Nc1nc(=S)[nH]c2c1C(c1c(-c3ccccc3)[nH]c3ccc(Cl)cc13)C=C(c1ccc(Cl)cc1)O2 (stereo unspecified) | 10

System: Aspergillus oryzae
Assay: Antimicrobial activity against Aspergillus oryzae MTCC 3567 at 1000 ug/ml after 72 hrs by cup plate method
Type: functional
Settings: MTCC 3567, 72 h, read-out: IZ

Row | Compound | zone of inhibition at 1000 µg/mL [mm]
15 | Nc1nc(=S)[nH]c2c1C(c1c(-c3ccccc3)[nH]c3ccc(Cl)cc13)C=C(c1ccc(Cl)cc1)O2 (stereo unspecified) | 0

System: Pseudomonas aeruginosa
Assay: Antimicrobial activity against Pseudomonas aeruginosa MTCC 1688 at 500 ug/ml after 24 hrs by cup plate method
Type: functional
Settings: MTCC 1688, 24 h, read-out: IZ

Row | Compound | zone of inhibition at 500 µg/mL [mm]
16 | Nc1nc(=S)[nH]c2c1C(c1c(-c3ccccc3)[nH]c3ccc(Cl)cc13)C=C(c1ccc(Cl)cc1)O2 (stereo unspecified) | 10

System: not listed separately
Assay: Antioxidant activity assessed as metal chelating activity by measuring inhibition of ferrozine-Fe2+ complex formation at 25 to 100 ug/ml
Type: functional
Settings: not given

Row | Compound | Activity
17 | Nc1nc(=S)[nH]c2c1C(c1c(-c3ccccc3)[nH]c3ccc(Cl)cc13)C=C(c1ccc(Cl)cc1)O2 (stereo unspecified) | Active

System: Staphylococcus aureus
Assay: Antimicrobial activity against Staphylococcus aureus ATCC 29513 at 500 ug/ml after 24 hrs by cup plate method
Type: functional
Settings: ATCC 29513, 24 h, read-out: IZ

Row | Compound | zone of inhibition at 500 µg/mL [mm]
18 | Nc1nc(=S)[nH]c2c1C(c1c(-c3ccccc3)[nH]c3ccc(Cl)cc13)C=C(c1ccc(Cl)cc1)O2 (stereo unspecified) | 13

System: Aspergillus niger
Assay: Antimicrobial activity against Aspergillus niger MTCC 281 at 1000 ug/ml after 72 hrs by cup plate method
Type: functional
Settings: MTCC 281, 72 h, read-out: IZ

Row | Compound | zone of inhibition at 1000 µg/mL [mm]
19 | Nc1nc(=S)[nH]c2c1C(c1c(-c3ccccc3)[nH]c3ccc(Cl)cc13)C=C(c1ccc(Cl)cc1)O2 (stereo unspecified) | 14

System: Klebsiella pneumoniae
Assay: Antimicrobial activity against Klebsiella pneumoniae NCTC 13368 at 1000 ug/ml after 24 hrs by cup plate method
Type: functional
Settings: NCTC 13368, 24 h, read-out: IZ

Row | Compound | zone of inhibition at 1000 µg/mL [mm]
20 | Nc1nc(=S)[nH]c2c1C(c1c(-c3ccccc3)[nH]c3ccc(Cl)cc13)C=C(c1ccc(Cl)cc1)O2 (stereo unspecified) | 8

System: Aspergillus terreus
Assay: Antimicrobial activity against Aspergillus terreus MTCC 1782 at 500 ug/ml after 72 hrs by cup plate method
Type: functional
Settings: MTCC 1782, 72 h, read-out: IZ

Row | Compound | zone of inhibition at 500 µg/mL [mm]
21 | Nc1nc(=S)[nH]c2c1C(c1c(-c3ccccc3)[nH]c3ccc(Cl)cc13)C=C(c1ccc(Cl)cc1)O2 (stereo unspecified) | 2

System: Klebsiella pneumoniae
Assay: Antimicrobial activity against Klebsiella pneumoniae NCTC 13368 at 500 ug/ml after 24 hrs by cup plate method
Type: functional
Settings: NCTC 13368, 24 h, read-out: IZ

Row | Compound | zone of inhibition at 500 µg/mL [mm]
22 | Nc1nc(=S)[nH]c2c1C(c1c(-c3ccccc3)[nH]c3ccc(Cl)cc13)C=C(c1ccc(Cl)cc1)O2 (stereo unspecified) | 5

System: Staphylococcus aureus
Assay: Antimicrobial activity against Staphylococcus aureus ATCC 29513 at 750 ug/ml after 24 hrs by cup plate method
Type: functional
Settings: ATCC 29513, 24 h, read-out: IZ

Row | Compound | zone of inhibition at 750 µg/mL [mm]
23 | Nc1nc(=S)[nH]c2c1C(c1c(-c3ccccc3)[nH]c3ccc(Cl)cc13)C=C(c1ccc(Cl)cc1)O2 (stereo unspecified) | 13

System: Aspergillus terreus
Assay: Antimicrobial activity against Aspergillus terreus MTCC 1782 at 1000 ug/ml after 72 hrs by cup plate method
Type: functional
Settings: MTCC 1782, 72 h, read-out: IZ

Row | Compound | zone of inhibition at 1000 µg/mL [mm]
24 | Nc1nc(=S)[nH]c2c1C(c1c(-c3ccccc3)[nH]c3ccc(Cl)cc13)C=C(c1ccc(Cl)cc1)O2 (stereo unspecified) | 3

System: Pseudomonas aeruginosa
Assay: Antimicrobial activity against Pseudomonas aeruginosa MTCC 1688 at 1000 ug/ml after 24 hrs by cup plate method
Type: functional
Settings: MTCC 1688, 24 h, read-out: IZ

Row | Compound | zone of inhibition at 1000 µg/mL [mm]
25 | Nc1nc(=S)[nH]c2c1C(c1c(-c3ccccc3)[nH]c3ccc(Cl)cc13)C=C(c1ccc(Cl)cc1)O2 (stereo unspecified) | 11

System: Aspergillus flavus
Assay: Antimicrobial activity against Aspergillus flavus MTCC 1973 at 750 ug/ml after 72 hrs by cup plate method
Type: functional
Settings: MTCC 1973, 72 h, read-out: IZ

Row | Compound | zone of inhibition at 750 µg/mL [mm]
26 | Nc1nc(=S)[nH]c2c1C(c1c(-c3ccccc3)[nH]c3ccc(Cl)cc13)C=C(c1ccc(Cl)cc1)O2 (stereo unspecified) | 4
